According to patent US9226939B2, “Histone inhibition” (THE AUSTRALIAN NATIONAL UNIVERSITY, priority 2010, dated 2016):

How the values were obtained:
calf thymus histones [1] = assay: Inhibition of histone killing of HMEC (flow cytometry, Calcein-AM/PI); assay type: cell-based; conditions: for inhibitory activity on histone toxicity (in words) / % histone killing ± SEM: HMEC; for inhibitory activity on histone toxicity (in words): Table 1 discussion; for % histone killing ± SEM: compounds at 50 μg/ml, calf thymus histones 400 μg/ml; for inhibition of cytotoxic effects of histones for HMEC: histones 400 μg/ml
Protocol: (§1) Different concentrations of calf thymus histones were initially assessed for their toxicity for human umbilical vein endothelial cells (HUVEC) and human microvascular endothelial cells (HMEC). Suspensions of HUVEC/HMEC in Medium199/20% fetal calf serum (FCS) were dispensed into each well of a 96 well plate (1×10^5 cells/well in 50 μl of medium). Calf thymus histones (50 μl/well in M199/20% FCS) were then added to give a final concentration of 100-800 μg/ml followed by 25 μl/well of Calcein-AM in PBS (final concentration 0.04 μM) and 25 propidium iodide (PI) in PBS (final concentration 2.5 μg/ml). Each 96 well plate was incubated at 37° C. for 60 min in a 5% CO2 incubator, placed on ice and the contents of each well analysed by flow cytometry for viable and dead cells. Viable cells were detected as Calcein-AM-bright and PI-dim and dead cells as Calcein-AM-dim and PI-bright. FIG. 1 depicts a typical viability assay comparing HUVEC cultured alone (9.15% dead, 78.6% viable) with HUVEC cultured for 60 min with 200 μg/ml of calf thymus histones (50.4% dead, 35.6% viable). The toxicity of calf thymus histones for HUVEC and HMEC is shown in detail in FIG. 2, with histone toxicity for HUVEC (FIG. 2A) and HMEC (FIG. 2B) being highly concentration dependent, although HMEC were more resistant to histone toxicity than HUVEC. Thus, at 100 μg/ml histones killed 15-20% of HUVEC but had no effect on HMEC viability, whereas at 800 μg/ml histones killed >85% of HUVEC and ˜55% of HMEC (FIG. 1). In subsequent inhibition experiments calf thymus histones were used at 200 μg/ml for HUVEC and 400 μg/ml for HMEC, these concentrations resulting in ˜50% killing of both populations of endothelial cells.
In inhibition experiments the inhibitor (final concentration ranging from 1.6-100 μg/ml) was mixed with calf thymus histones (final concentration 200 or 400 μg/ml) prior to the addition of HUVEC/HMEC, Calcein-AM and PI to each well.
Using HMEC as the endothelial cell target similar inhibitory effects of maltotriose sulfate (FIG. 6) and the other sulfated oligosaccharides (Table 1) on histone toxicity was observed. In fact, a more detailed analysis of the inhibitory activity of a range of polyanions on histone toxicity, using HMEC as the target endothelial cell, is shown in Table 1.

calf thymus histones [2] = assay: Inhibition of histone cytotoxicity for HUVEC (flow cytometry, Calcein-AM/PI); assay type: cell-based; conditions: inhibitor 1.6-100 μg/ml; histones 200 μg/ml
Protocol: as §1, with “Thus, at 100 μg/ml histones killed 15-20% of HUVEC but had no effect on HMEC viability, whereas at 800 μg/ml histones killed >85% of HUVEC and ˜55% of HMEC (FIG. 1). In subsequent inhibition experiments calf thymus histones were used at 200 μg/ml for HUVEC and 400 μg/ml for HMEC, these concentrations resulting in ˜50% killing of both populations of endothelial cells.” left out

radiolabelled histones = assay: Blockade of radiolabelled histone accumulation in rabbit lungs (gamma scintigraphy); assay type: in vivo; conditions: 15 mg/kg intravenously 15 minutes before radiolabel
[3] = tested on: lipopolysaccharide (LPS)-induced mouse model of sepsis; assay: LPS-induced mouse model of sepsis; assay type: in vivo
Protocol: A study was conducted to assess in vivo efficacy of test articles 1 (maltotriose sulfate; TA1), 2 (cellobiose sulfate; TA2), and 3 (heparin; TA3) in a lipopolysaccharide (LPS)-induced mouse model of sepsis. Endotoxemia was induced by intraperitoneal (i.p.) injection with LPS on day 1. Test articles were co-administered i.p. on day 1, and then dosed daily i.p. for an additional 2 days.

[4] = 15 mg/kg i.p. daily x3, LPS 50 mg/kg
[5] = 15 mg/kg i.p. daily x3, with LPS
[6] = 100 mg/kg i.p. daily x3, with LPS

| Compound | inhibitory activity on histone toxicity (in words) (calf thymus histones [1]) | % histone killing ± SEM (calf thymus histones [1]) | further results |
| --- | --- | --- | --- |
| O=S(=O)(O)OC[C@H]1O[C@@](COS(=O)(=O)O)(O[C@H]2O[C@H](COS(=O)(=O)O)[C@@H](OS(=O)(=O)O)[C@H](OS(=O)(=O)O)[C@H]2OS(=O)(=O)O)[C@@H](OS(=O)(=O)O)[C@@H]1OS(=O)(=O)O [Sucrose octasulfate, reference compound] | weaker inhibitors | 43.5 ± 4.0% |  |
| maltose sulfate [Maltose SO4] | weaker inhibitors | 77.1 ± 4.7% | inhibitory activity on histone cytotoxicity for HUVEC (in words) (calf thymus histones [2]): weak inhibitor |
| sodium maltotetraose sulfate |  |  | accumulation of radiolabelled histones in the lung (radiolabelled histones): blocked |
| low molecular weight heparin [reference compound] | active |  |  |
| maltotriose sulfate [Maltotriose SO4] | more active than sulfated isomaltotriose |  | survival (Kaplan-Meier) [3, 4]: extended survival; tolerability [3, 5]: better tolerated; tolerability [3, 6]: appeared to produce some toxicity (cluster of deaths) after the third dose; inhibition of cytotoxic effects of histones for HMEC (calf thymus histones [1]; maltotriose sulfate 25 μg/ml): totally; inhibition of cytotoxic effects of histones for HMEC (calf thymus histones [1]; maltotriose sulfate 100 μg/ml): partially |
| Isomaltotriose sulfate [Isomaltotriose SO4] |  | 49.5 ± 5.4% |  |
| sodium maltohexaose sulfate |  |  | accumulation of radiolabelled histones in the lung (radiolabelled histones): blocked |
| panose sulfate [Panose SO4] | more active than sulfated isomaltotriose |  |  |
| raffinose sulfate [Raffinose SO4] | more active than sulfated isomaltotriose |  |  |
| cellobiose sulfate [Cellobiose SO4] | potent inhibitor |  | survival (Kaplan-Meier) [3, 4]: extended survival; tolerability [3, 5]: well tolerated; survival (Kaplan-Meier) ([3]; 100 mg/kg i.p. daily x3, LPS 50 mg/kg): extended survival; tolerability [3, 6]: well tolerated; accumulation of radiolabelled histones in the lung (radiolabelled histones): blocked |
| β-cyclodextrin sulfate [β-cyclodextrin SO4] | active |  | inhibitory activity on histone cytotoxicity for HUVEC (in words) (calf thymus histones [2]): almost as active as the linear maltotriose sulfate and maltopentaose sulfate |
| Heparin [reference compound] | active |  | survival (Kaplan-Meier) ([3]; 1.1 mg/kg i.p. daily x3, LPS 50 mg/kg): no apparent change in the survival plot compared to the control; tolerability ([3]; 1.1 mg/kg i.p. daily x3, with LPS): well tolerated |
| Carboxylated β-cyclodextrin | not | 105.8 ± 19.9% |  |
| Propanyl bis-gluconamide SO4 | some inhibitory activity | 27.8 ± 1.5% |  |
